From publication PMC9721440, “Investigation of the enantioselectivity of acetylcholinesterase and butyrylcholinesterase upon inhibition by tacrine-iminosugar heterodimers” (Journal of Enzyme Inhibition and Medicinal Chemistry, 2022)
“Also recorded” adds a separate entry of the source.

Legend:
AChE = details: cited from earlier work; for inhibition of AChE: 20 μM inhibitor concentration
[1] = molecular target: T1, BuChE from equine serum (eqBuChE) (Equus caballus, UniProt P81908); assay: biochemical; assay type: biochemical; details: for IC50: [S] = 112 µM, mean ± SD; for Enantioselectivity (eqBuChE): IC50(Xa:BuChE)/IC50(Xb,BuChE)
T1 construct: BuChE from equine serum; from tissue; host or cells: equine serum
T1 sequence (P81908 whole entry): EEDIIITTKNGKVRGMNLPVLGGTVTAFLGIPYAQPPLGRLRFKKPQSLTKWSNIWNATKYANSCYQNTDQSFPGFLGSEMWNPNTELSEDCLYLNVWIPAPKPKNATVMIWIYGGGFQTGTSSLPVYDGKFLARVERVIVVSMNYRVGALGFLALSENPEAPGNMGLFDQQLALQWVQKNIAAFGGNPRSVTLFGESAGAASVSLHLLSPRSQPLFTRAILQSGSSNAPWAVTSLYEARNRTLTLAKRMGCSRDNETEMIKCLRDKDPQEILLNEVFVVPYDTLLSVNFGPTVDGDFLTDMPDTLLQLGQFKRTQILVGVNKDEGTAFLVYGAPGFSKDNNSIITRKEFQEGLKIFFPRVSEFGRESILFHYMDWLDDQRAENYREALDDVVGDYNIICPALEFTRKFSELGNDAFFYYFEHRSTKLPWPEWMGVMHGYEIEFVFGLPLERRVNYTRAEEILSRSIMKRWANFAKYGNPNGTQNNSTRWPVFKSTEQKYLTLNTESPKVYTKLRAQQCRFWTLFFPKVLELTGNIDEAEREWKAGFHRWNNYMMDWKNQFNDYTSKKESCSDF
Description: (§1) A Thermo Scintific^TM Varioskan^TM LUX microplate reader and Greiner F-bottom 96-well plates were used. Cornish-Bowden plots (1/V vs. [I] and [S]/V vs. [I]) were used for the visualisation of the mode of inhibition.
(§2) A minor modification of the Ellman assay was used in order to measure the IC50 values.

[2] = molecular target: AChE from Electrophorus electricus (eeAChE) (Electrophorus electricus, UniProt O42275); assay: biochemical; assay type: biochemical; details: for IC50: [S] = 121 µM, mean ± SD; for Enantioselectivity (eeAChE): IC50(Xa:AChE)/IC50(Xb:AChE); for fold more potent eeAChE inhibitor than 10a: IC50 ratio vs 10a
AChE from Electrophorus electricus (eeAChE), sequence (O42275 24-633): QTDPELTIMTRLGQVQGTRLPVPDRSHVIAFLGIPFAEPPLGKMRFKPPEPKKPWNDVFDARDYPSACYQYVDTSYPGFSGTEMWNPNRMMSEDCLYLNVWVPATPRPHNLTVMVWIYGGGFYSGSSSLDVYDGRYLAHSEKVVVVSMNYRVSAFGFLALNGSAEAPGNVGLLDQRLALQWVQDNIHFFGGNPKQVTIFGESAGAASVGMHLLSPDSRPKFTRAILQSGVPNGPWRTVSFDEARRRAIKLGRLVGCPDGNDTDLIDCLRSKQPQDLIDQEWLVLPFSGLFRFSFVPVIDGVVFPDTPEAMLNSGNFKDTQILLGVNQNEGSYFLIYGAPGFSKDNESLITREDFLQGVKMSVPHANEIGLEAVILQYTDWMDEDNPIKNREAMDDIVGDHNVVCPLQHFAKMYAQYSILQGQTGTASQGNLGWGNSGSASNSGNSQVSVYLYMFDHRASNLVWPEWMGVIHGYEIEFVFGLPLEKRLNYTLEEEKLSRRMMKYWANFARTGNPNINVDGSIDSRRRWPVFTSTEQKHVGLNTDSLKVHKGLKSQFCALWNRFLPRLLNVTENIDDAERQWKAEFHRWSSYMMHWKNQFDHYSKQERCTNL
Description: as §1, §2

[3] = test system: A549, HBL-100, HeLa, SW1573, T-47D and WiDr cells; assay: Antiproliferative SRB assay, panel of six cancer cell lines; assay type: cell-based; details: Homo sapiens, 48 h exposure, whole panel, read-out: GI50 against panel of six human cancer cell lines
Description: (§3) For the antiproliferative tests, we applied our implementation of the National Cancer Institute (NCI) screening protocol. As a model of human solid tumour cells, we selected the cell lines A549 (non-small cell lung), HBL-100 (breast), HeLa (cervix), SW1573 (non-small cell lung), T-47D (breast), and WiDr (colon). Cell seeding densities, based on the cell line doubling time, were 2500 (A549, HBL-100, HeLa and SW1573) or 5000 (T-47D and WiDr) cells/well. Compounds were initially dissolved in DMSO at 400 times the desired final maximum test concentration. […] Each compound was tested in triplicate at different dilutions ranging from 1 to 100 μM. Drug treatment began on day 1 after sowing. The drug incubation times were 48 h, after which the cells were precipitated with ice-cold TCA (50% w/v) and fixed for 60 min at 4 °C. Then the SRB test was performed. The optical density (OD) of each well was measured at 530 nm using a microplate absorbance reader (PowerWave XS, BioTek Instruments Inc.). Values were corrected for background OD of wells containing medium only[39].
(§4) Antiproliferative activity of our heterodimers was investigated for six cancer cell lines including A549, HBL-100, HeLa, SW1573, T-47D and WiDr.

T-47D (breast) cells = assay: Antiproliferative SRB assay, T-47D; assay type: cell-based; details: Homo sapiens, T47D, 48 h exposure
Description: as §3, §4

[4] = test system: SW1573 (non-small cell lung) cells; assay: Antiproliferative SRB assay, SW1573; assay type: cell-based; details: Homo sapiens, 48 h exposure
Description: as §3, §4

HBL-100 (breast) cells = assay: Antiproliferative SRB assay, HBL-100; assay type: cell-based; details: Homo sapiens, 48 h exposure
Description: as §3, §4

HeLa (cervix) cells = assay: Antiproliferative SRB assay, HeLa; assay type: cell-based; details: Homo sapiens, 48 h exposure
Description: as §3, §4

[5] = test system: A549 (non-small cell lung) cells; assay: Antiproliferative SRB assay, A549; assay type: cell-based, human; details: 48 h exposure
Description: as §3, §4

WiDr (colon) cells = assay: Antiproliferative SRB assay, WiDr; assay type: cell-based; details: Homo sapiens, 48 h exposure
Description: as §3, §4

COc1ccc2c3c1O[C@@H]1C[C@H](O)C=C[C@]31CCN(C)C2 [Compound 2b]
inhibition of AChE (AChE): ca. 4%

OC[C@@H]1[C@@H](O)[C@H](O)CN1Cc1cn(CCNc2c3c(nc4ccccc24)CCCC3)nn1 [Compound 9a]
IC50 [1]: 96 ± 5 nM
IC50 [2]: 420 ± 10 nM
GI50 [3]: > 100000 nM

CNC(=O)Oc1ccc2c(c1)[C@]1(C)CCN(C)[C@@H]1N2C [(-)-physostigmine (3a), (-)-physostigmine]
fold stronger AChE inhibitor than (+)-physostigmine (3b) (AChE; depending on the enzyme source): 25- to 1000 fold

OC[C@H]1[C@H](O)[C@@H](O)CN1Cc1cn(CCNc2c3c(nc4ccccc24)CCCC3)nn1 [Compound 9b]
Enantioselectivity (eqBuChE) [1]: 0.54
IC50 [1]: 179 ± 25 nM
Enantioselectivity (eeAChE) [2]: 0.28
IC50 [2]: 1480 ± 240 nM
GI50 [3]: > 100000 nM

OC[C@@H]1[C@@H](O)[C@H](O)CN1Cc1cn(CCCNc2c3c(nc4ccccc24)CCCC3)nn1 [Compound 10a]
IC50 [1]: 184 ± 16 nM
fold less potent eeAChE inhibitor than 10b ([2]; IC50 ratio vs 10b, less potent): ca. 3.5 fold
IC50 [2]: 530 ± 30 nM
GI50 [3]: > 100000 nM

OC[C@H]1[C@H](O)[C@@H](O)CN1Cc1cn(CCCCCCNc2c3c(nc4ccccc24)CCCC3)nn1 [Compound 11b]
GI50 (T-47D (breast) cells): > 100000 nM
GI50 [4]: 97000 ± 5400 nM
Mode of inhibition eqBuChE ([1]; Cornish-Bowden plots): mixed; also recorded: (mixed)
Enantioselectivity (eqBuChE) [1]: 1.1
fold stronger eqBuChE inhibitor than 9b ([1]; IC50 ratio vs 9b): 22 fold
fold stronger eqBuChE inhibitor than 10b ([1]; IC50 ratio vs 10b): 29 fold
IC50 [1]: 8.1 ± 0.1 nM
Ki ([1]; mixed inhibition, Cornish-Bowden, read-out: Ki (competitive inhibition constant) eqBuChE): 10 nM
Mode of inhibition eeAChE ([2]; Cornish-Bowden plots): mixed; also recorded: (mixed)
Enantioselectivity (eeAChE) [2]: 0.91
fold more potent eeAChE inhibitor than 9b ([2]; IC50 ratio vs 9b): ca. 138 fold
fold more potent eeAChE inhibitor than 10b ([2]; IC50 ratio vs 10b): ~14 fold
IC50 [2]: 10.7 ± 0.3 nM
Ki ([2]; mixed inhibition, Cornish-Bowden, read-out: Ki (competitive inhibition constant) eeAChE): 19 nM
GI50 (HBL-100 (breast) cells): > 100000 nM
GI50 (HeLa (cervix) cells): > 100000 nM
GI50 [5]: 84000 ± 28000 nM
GI50 ([5]; Homo sapiens, A549, 48 h): < 100000 nM
GI50 (WiDr (colon) cells): > 100000 nM

COc1ccc2c3c1O[C@H]1C[C@@H](O)C=C[C@@]31CCN(C)C2 [(-)-Galantamine (2a), (-)-Galantamine]
inhibition of AChE (AChE): ca. 94%

OCC1C(O)C(O)CN1Cc1cn(CCCCCCNc2c3c(nc4ccccc24)CCCC3)nn1 (centres unmarked) [Compound 11a]
GI50 (T-47D (breast) cells): > 100000 nM
GI50 [4]: > 100000 nM
fold stronger eqBuChE inhibitor than 9a ([1]; IC50 ratio vs 9a): roughly 11 fold
fold stronger eqBuChE inhibitor than 10a ([1]; IC50 ratio vs 10a): 20 fold
IC50 [1]: 9.1 ± 0.3 nM
fold more potent eeAChE inhibitor than 9a ([2]; IC50 ratio vs 9a): ca. 43 fold
fold more potent eeAChE inhibitor than 10a [2]: 55 fold
IC50 [2]: 9.7 ± 1 nM
GI50 (HBL-100 (breast) cells): > 100000 nM
GI50 (HeLa (cervix) cells): 93000 ± 12000 nM
GI50 [5]: 94000 ± 9600 nM
GI50 ([5]; Homo sapiens, A549, 48 h): < 100000 nM
GI50 (WiDr (colon) cells): > 100000 nM

OC[C@H]1[C@H](O)[C@@H](O)CN1Cc1cn(CCCNc2c3c(nc4ccccc24)CCCC3)nn1 [Compound 10b]
Enantioselectivity (eqBuChE) [1]: 0.79
IC50 [1]: 232 ± 28 nM
Enantioselectivity (eeAChE) [2]: 3.5
fold more potent eeAChE inhibitor than 10a [2]: ca. 4 fold
IC50 [2]: 150 ± 38 nM
GI50 [3]: > 100000 nM
